US20230312616A1, “MODULATORS OF CYSTIC FIBROSIS TRANSMEMBRANE CONDUCTANCE REGULATOR” (priority 2018, published 2023)

The compounds below were run on CFTR (assay: CFTR modulating activity, generated using one or more of the assays disclosed (e.g. membrane potential dye assay in enteroid cells)). Conditions: one or more of the assays disclosed herein; qualitative (Active / ND).
Type: cell-based, human
Source text: Human intestinal epithelial enteroid cells may be obtained from the Hubrecht Institute for Developmental Biology and Stem Cell Research, Utrecht, The Netherlands and expanded in T-Flasks as previously described (Dekkers JF, Wiegerinck CL, de Jonge HR, Bronsveld I, Janssens HM, de Winter-de Groot KM, Brandsma AM, de Jong NWM, Bijvelds MJC, Scholte BJ, Nieuwenhuis EES, van den Brink S, Clevers H, van der Ent CK, Middendorp S and M Beekman JM. A functional CFTR assay using primary cystic fibrosis intestinal organoids. Nat Med. 2013 Jul;19(7):939-45.).
Cells may be recovered in cell recovery solution, collected by centrifugation at 650 rpm for 5 min at 4° C., resuspended in TryPLE and incubated for 5 min at 37° C. Cells can then be collected by centrifugation at 650 rpm for 5 min at 4° C. and resuspended in IEMM containing 10 µM ROCK inhibitor (RI). The cell suspension is then passed through a 40 µm cell strainer and resuspended at 1x10^6 cells/mL in IEMM containing 10 µM RI. Cells may be seeded at 5000 cells/well into multi-well plates and incubated for overnight at 37° C., 95% humidity and 5% CO2 prior to assay.
Enteroid cells may be incubated with test compound in IEMM for 18-24 hours at 37° C., 95% humidity and 5% CO2. Following compound incubations, a membrane potential dye assay can be employed using a FLIPR Tetra to directly measure the potency and efficacy of the test compound on CFTR-mediated chloride transport following acute addition of 10 µM forskolin and 300 nM N-[2,4-bis(1,1-dimethylethyl)-5-hydroxyphenyl]-1,4-dihydro-4-oxoquinoline-3-carboxamide. Briefly, cells aree washed 5 times in Bath 1 Buffer. Bath 1 Dye Solution is added and the cells are incubated for 25 min at room temperature. Following dye incubation, cells are washed 3 times in Chloride Free Dye Solution. Chloride transport is initiated by addition of Chloride Free Dye Stimulation Solution and the fluorescence signal is read for 15 min. The CFTR-mediated chloride transport for each condition may be determined from the AUC of the fluorescence response to acute forskolin and 300 nM N-[2,4-bis(1,1-dimethylethyl)-5-hydroxyphenyl]-1,4-dihydro-4-oxoquinoline-3-carboxamide stimulation.
Chloride transport may be expressed as a percentage of the chloride transport following treatment with one or more reference standards or positive controls. Suitable reference standards/controls include one or more of Compound II, Compound III, Compound IV, and Compound A. Compound A is:
Table 6 confirms CFTR modulating activity for representative compounds of the invention generated using one or more of the assays disclosed herein.

SMILES	CFTR Modulating Activity
C[C@@H]1CN(c2nc([Si](C)(C)CCC(C)(C)C)ccc2C(=O)NS(=O)(=O)c2ccccc2)C(C)(C)C1 [Compound 2-3, N-(benzenesulfonyl)-6-[3,3-dimethylbutyl(dimethyl)silyl]-2-[(4S)-2,2,4-trimethylpyrrolidin-1-yl]pyridine-3-carboxamide]	Active
C[C@@H]1CN(c2nc(-n3ccc([Si](C)(C)CCC(F)(F)F)n3)ccc2C(=O)NS(=O)(=O)c2ccccc2)C(C)(C)C1 [Compound 2-12, N-(Benzenesulfonyl)-6-[3-[Dimethyl(3,3,3-trifluoropropyl)Silyl]Pyrazol-1-yl]-2-[(4S)-2,2,4-trimethylpyrrolidin-1-yl]Pyridine-3-carboxamide]	Active
C[C@@H]1CN(c2nc(-n3ccc(OCCC4(C(F)(F)F)CC4)n3)ccc2C(=O)NS(=O)(=O)c2cccc([Si](C)(C)C)c2)C(C)(C)C1 [Compound 2-17, 6-[3-[2-[1-(Trifluoromethyl)Cyclopropyl]Ethoxy]Pyrazol-1-yl]-2-[(4S)-2,2,4-trimethylpyrrolidin-1-yl]-N-(3-trimethylsilylphenyl)Sulfonyl-pyridine-3-carboxamide]	Active
C[C@@H]1CN(c2nc(-n3ccc(OCC[Si](C)(C)C)n3)ccc2C(=O)NS(=O)(=O)c2ccccc2)C(C)(C)C1 [Compound 2-7, N-(Benzenesulfonyl)-2-[(4S)-2,2,4-trimethylpyrrolidin-1-yl]-6-[3-(2-trimethylsilylethoxy)Pyrazol-1-yl]Pyridine-3-carboxamide]	Active
C[C@@H]1CN(c2nc(-n3ccc(OC[Si](C)(C)C(C)(C)C)n3)ccc2C(=O)NS(=O)(=O)c2ccccc2)C(C)(C)C1 [Compound 2-15, N-(Benzenesulfonyl)-6-[3-[[tert-butyl(dimethyl)silyl]methoxy]pyrazol-1-yl]-2-[(4S)-2,2,4-trimethylpyrrolidin-1-yl]pyridine-3-carboxamide]	Active
C[C@@H]1CN(c2nc(-n3ccc([Si](C)(C)CCC(C)(C)C)n3)ccc2C(=O)NS(=O)(=O)c2ccccc2)C(C)(C)C1 [Compound 2-5, N-(Benzenesulfonyl)-6-[3-[3,3-dimethylbutyl(Dimethyl)Silyl]Pyrazol-1-yl]-2-[(4S)-2,2,4-trimethylpyrrolidin-1-yl]Pyridine-3-carboxamide]	Active
C[C@@H]1CN(c2nc(-n3ccc(OCCC4(C(F)(F)F)CC4)n3)ccc2C(=O)NS(=O)(=O)c2ccccc2)C(C)([Si](C)(C)C)C1 (single isomer, unassigned) [2-10 Isomer 2]	Active
C[C@@H]1CN(c2nc(-n3ccc(OCCC4([Si](C)(C)C)CC4)n3)ccc2C(=O)NS(=O)(=O)c2ccccc2)C(C)(C)C1 [Compound 2-6, N-(Benzenesulfonyl)-2-[(4S)-2,2,4-trimethylpyrrolidin-1-yl]-6-[3-[2-(1-trimethylsilylcyclopropyl)Ethoxy]Pyrazol-1-yl] Pyridine-3-carboxamide]	Active
C[C@@H]1CN(c2nc(-n3ccc(OC[Si](C)(C)C)n3)ccc2C(=O)NS(=O)(=O)c2ccccc2)C(C)(C)C1 [Compound 2-11, N-(Benzenesulfonyl)-2-[(4S)-2,2,4-trimethylpyrrolidin-1-yl]-6-[3-(Trimethylsilylmethoxy)Pyrazol-1-yl]Pyridine-3-carboxamide]	Active
C[C@@H]1CN(c2nc(-n3ccc([Si](C)(C)C(C)(C)C)n3)ccc2C(=O)NS(=O)(=O)c2ccccc2)C(C)(C)C1 [Compound 2-14, N-(benzenesulfonyl)-6-[3-[Tert-butyl(Dimethyl)Silyl]Pyrazol-1-yl]-2-[(4S)-2,2,4-trimethylpyrrolidin-1-yl]Pyridine-3-carboxamide]	Active
Cc1ccc([Si](C)(C)c2ccc(C(=O)NS(=O)(=O)c3ccccc3)c(N3C[C@@H](C)CC3(C)C)n2)cc1 [Compound 2-4, N-(Benzenesulfonyl)-6-[Dimethyl(p-tolyl)Silyl]-2-[(4S)-2,2,4-trimethylpyrrolidin-1-yl]pyridine-3-carboxamide]	Active
CC1(C)CC([Si](C)(C)C)CN1c1nc(-n2ccc(OCCC3(C(F)(F)F)CC3)n2)ccc1C(=O)NS(=O)(=O)c1ccccc1 (single isomer, unassigned) [2-13 Enantiomer 1, N-(Benzenesulfonyl)-2-(2,2-dimethyl-4-trimethylsilyl-pyrrolidin-1-yl)-6-[3-[2-[1-(Trifluoromethyl)Cyclopropyl]Ethoxy]Pyrazol-1-yl]Pyridine-3-carboxamide]	Active
C[C@@H]1CN(c2nc(-n3ccc(OCCC[Si](C)(C)C)n3)ccc2C(=O)NS(=O)(=O)c2ccccc2)C(C)(C)C1 [Compound 2-9, N-(Benzenesulfonyl)-2-[(4S)-2,2,4-trimethylpyrrolidin-1-yl]-6-[3-(3-trimethylsilylpropoxy)Pyrazol-1-yl]Pyridine-3-carboxamide]	Active
C[C@@H]1CN(c2nc(-n3ccc(OCC(C)(C)C(F)(F)F)n3)ccc2C(=O)NS(=O)(=O)c2cccc([Si](C)(C)C)c2)C(C)(C)C1 [Compound 2-16, 6-[3-(3,3,3-trifluoro-2,2-dimethyl-propoxy)pyrazol-1-yl]-2-[(4S)-2,2,4-trimethylpyrrolidin-1-yl]—N—(3-trimethylsilylphenyl)sulfonyl-pyridine-3-carboxamide]	Active
C[C@@H]1CN(c2nc([Si](C)(C)C)ccc2C(=O)NS(=O)(=O)c2ccccc2)C(C)(C)C1 [Compound 2-8, N-(Benzenesulfonyl)-2-[(4S)-2,2,4-trimethylpyrrolidin-1-yl]-6-trimethylsilyl-pyridine-3-carboxamide]	Active
C[C@@H]1CN(c2nc(-n3ccc(OCCC4(C(F)(F)F)CC4)n3)c([Si](C)(C)C)cc2C(=O)NS(=O)(=O)c2ccccc2)C(C)(C)C1 [Compound 2-1, N-(Benzenesulfonyl)-6-[3-[2-[1-(Trifluoromethyl)Cyclopropyl]Ethoxy]Pyrazol-1-yl]-2-[(4S)-2,2,4-trimethylpyrrolidin-1-yl]-5-trimethylsilyl-pyridine-3-carboxamide]	Active
C[C@@H]1CN(c2nc([Si](C)(C)c3ccccc3)ccc2C(=O)NS(=O)(=O)c2ccccc2)C(C)(C)C1 [Compound 2-2, N-(Benzenesulfonyl)-6-[Dimethyl(Phenyl)Silyl]-2-[(4S)-2,2,4-trimethylpyrrolidin-1-yl]Pyridine-3-carboxamide]	Active
C[C@@H]1CN(c2nc(-n3ccc([Si](C)(C)C)n3)ccc2C(=O)NS(=O)(=O)c2ccccc2)C(C)(C)C1 [Compound 2-18, N-(benzenesulfonyl)-2-[(4S)-2,2,4-trimethylpyrrolidin-1-yl]-6-(3-trimethylsilylpyrazol-1-yl)pyridine-3-carboxamide]	Active
